Experimental data from patent publication US4138554A, “7-[D-α-(4-Hydroxy-1,5-naphthyridine-3-carboxamido)-α-phenyl (and p-hydroxyphenyl)acetamido]-3-carbamoyloxymethyl-3-cephem-4-carboxylic acids” (priority 1977, dated 1979).
Like-named read-outs stand apart in the source and are kept apart here.

Key:
Pseudomonas aeruginosa = experiment: MIC by agar dilution against 61 strains of Pseudomonas aeruginosa, secondary evaluation; assay type: cell-based; conditions: Pseudomonas aeruginosa, read-out: MIC
Procedure, shortened: (§1)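 Steers' apparatus delivers inocula onto Mueller-Hinton agar containing serial two-fold dilutions; MIC is recorded per strain.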

E. coli = experiment: MIC by serial two-fold agar dilution (Mueller-Hinton agar), E. coli; assay type: cell-based; conditions: Escherichia coli, Table 1, read-out: MIC
Procedure, shortened: as §1

P. aeruginosa = experiment: MIC by serial two-fold agar dilution (Mueller-Hinton agar), P. aeruginosa, primary screening; assay type: cell-based; conditions: Pseudomonas aeruginosa, Table 1, read-out: MIC
Procedure, shortened: as §1

Klebsiella sp. = experiment: MIC by serial two-fold agar dilution (Mueller-Hinton agar), Klebsiella sp.; assay type: cell-based; conditions: Klebsiella sp., Table 1; read-out: MIC
Procedure, shortened: (§2)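 Serial two-fold agar dilution on Mueller-Hinton agar, inoculated with a Steers' apparatus. Primary screening used 31 test organisms; secondary evaluation used 61 Pseudomonas aeruginosa strains. Relative activity values are mean % of MIC against sulbenicillin.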

S. aureus = experiment: MIC by serial two-fold agar dilution (Mueller-Hinton agar), S. aureus; assay type: cell-based; conditions: Staphylococcus aureus, read-out: MIC
Procedure, shortened: as §1

K. pneumoniae = experiment: MIC by serial two-fold agar dilution (Mueller-Hinton agar), K. pneumoniae; assay type: cell-based; conditions: Klebsiella pneumoniae, K. pneumoniae, Table 1
Procedure, shortened: as §2

Ps. aeruginosa A9843 = experiment: Median curative dose in mice, infection with Ps. aeruginosa; assay type: in vivo; conditions: Pseudomonas aeruginosa, A9843, sc
Source text: (§3) Median Curative Dose in Mgm./Kg.
(§4) Upon Subcutaneous Injection in Mice

S. aureus Smith = experiment: Median curative dose in mice, infection with S. aureus Smith; assay type: in vivo; conditions: Staphylococcus aureus, sc; subcutaneous injection in mice, S. aureus Smith, Table 4; read-out: Median Curative Dose (PD50)
Source text: as §3, §4

Pseudomonas (6 strains) = experiment: Mean % relative activity (MIC) vs sulbenicillin, Pseudomonas (6 strains); assay type: cell-based; conditions: for Mean % Relative Activity (SPBC = 100%): P. aerug. (6 strains)
Procedure: Minimum inhibitory concentrations (MIC) of BB-S520 were determined by serial two-fold agar dilution method using Steers' apparatus on Meuller-Hinton agar plate against 31 test organisms for the primary screening and also against 61 strains of Pseudomonas aeruginosa for the secondary evaluation. The results are shown in Table 1 and Table 2 along with those of BB-S514 and sulbenicillin.
Minimum inhibitory concentrations (MIC) of cephalosporins in the present study were determined by serial two-fold agar dilution method using Steers' apparatus on Mueller-Hinton agar plate against 31 test organisms for the primary screening and also against 61 strains of Pseudomonas aeruginosa for the secondary evaluation.

Structure (SMILES): NC(=O)OCC1=C(C(=O)O)N2C(=O)C(NC(=O)[C@H](NC(=O)c3cnc4cccnc4c3O)c3ccccc3)[C@H]2SC1 (stereo partly drawn) [BB-S520, Sodium 7-[D-α-(4-hydroxy-1,5-naphthyridine-3-carboxamido)-α-phenylacetamido]-3-carbamoyloxymethyl-3-cephem-4-carboxylate]
- MIC (Pseudomonas aeruginosa; BBRI Pa-No. 41, Table 2): 3.1 µg/mL
- MIC (Pseudomonas aeruginosa; BBRI Pa-No. 41, Table 7): 3.1 µg/mL
- MIC (Pseudomonas aeruginosa; BBRI Pa-No. 42, Table 2): 6.3 µg/mL
- MIC (Pseudomonas aeruginosa; BBRI Pa-No. 42, Table 7): 1.6 µg/mL
- MIC (Pseudomonas aeruginosa; BBRI Pa-No. 43, Table 2): 6.3 µg/mL
- MIC (Pseudomonas aeruginosa; BBRI Pa-No. 43, Table 7): 3.1 µg/mL
- MIC (Pseudomonas aeruginosa; BBRI Pa-No. 44 (unnamed strain), Table 7): 3.1 µg/mL
- MIC (Pseudomonas aeruginosa; BBRI Pa-No. 44, Table 2): 6.3 µg/mL
- MIC (Pseudomonas aeruginosa; BBRI Pa-No. 51, Table 2): 3.1 µg/mL
- MIC (Pseudomonas aeruginosa; BBRI Pa-No. 51, Table 7): 1.6 µg/mL
- MIC (Pseudomonas aeruginosa; BBRI Pa-No. 52, Table 2): 3.1 µg/mL
- MIC (Pseudomonas aeruginosa; BBRI Pa-No. 52, Table 7): 3.1 µg/mL
- MIC (Pseudomonas aeruginosa; BBRI Pa-No. 53, Table 2): 3.1 µg/mL
- MIC (Pseudomonas aeruginosa; BBRI Pa-No. 53, Table 7): 1.6 µg/mL
- MIC (Pseudomonas aeruginosa; BBRI Pa-No. 54, Table 2): 3.1 µg/mL
- MIC (Pseudomonas aeruginosa; BBRI Pa-No. 54, Table 7): 1.6 µg/mL
- MIC (Pseudomonas aeruginosa; BBRI Pa-No. 55, Table 2): 3.1 µg/mL
- MIC (Pseudomonas aeruginosa; BBRI Pa-No. 55, Table 7): 3.1 µg/mL
- MIC (Pseudomonas aeruginosa; BBRI Pa-No. 56, Table 2): 3.1 µg/mL
- MIC (Pseudomonas aeruginosa; BBRI Pa-No. 56, Table 7): 3.1 µg/mL
- MIC (Pseudomonas aeruginosa; BBRI Pa-No. 57, Table 2): 3.1 µg/mL
- MIC (Pseudomonas aeruginosa; BBRI Pa-No. 57, Table 7): 1.6 µg/mL
- MIC (Pseudomonas aeruginosa; BBRI Pa-No. 58, Table 2): 6.3 µg/mL
- MIC (Pseudomonas aeruginosa; BBRI Pa-No. 58, Table 7): 3.1 µg/mL
- MIC (Pseudomonas aeruginosa; BBRI Pa-No. 59, Table 2): 6.3 µg/mL
- MIC (Pseudomonas aeruginosa; BBRI Pa-No. 59, Table 7): 1.6 µg/mL
- MIC (Pseudomonas aeruginosa; BBRI Pa-No. 60, Table 2): 3.1 µg/mL
- MIC (Pseudomonas aeruginosa; BBRI Pa-No. 60, Table 7): 1.6 µg/mL
- MIC (Pseudomonas aeruginosa; BBRI Pa-No. 61, Table 2): 6.3 µg/mL
- MIC (Pseudomonas aeruginosa; BBRI Pa-No. 61, Table 7): 1.6 µg/mL
- MIC (Pseudomonas aeruginosa; BBRI Pa-No. 62, Table 2): 6.3 µg/mL
- MIC (Pseudomonas aeruginosa; BBRI Pa-No. 62, Table 7): 50 µg/mL
- MIC (Pseudomonas aeruginosa; BBRI Pa-No. 64, Table 2): 3.1 µg/mL
- MIC (Pseudomonas aeruginosa; BBRI Pa-No. 64, Table 7): 3.1 µg/mL
- MIC (Pseudomonas aeruginosa; BBRI Pa-No. 65, Table 2): 3.1 µg/mL
- MIC (Pseudomonas aeruginosa; BBRI Pa-No. 65, Table 7): 1.6 µg/mL
- MIC (Pseudomonas aeruginosa; BBRI Pa-No. 66, Table 2): 3.1 µg/mL
- MIC (Pseudomonas aeruginosa; BBRI Pa-No. 66, Table 7): 1.6 µg/mL
- MIC (Pseudomonas aeruginosa; BBRI Pa-No. 67, Table 2): 6.3 µg/mL
- MIC (Pseudomonas aeruginosa; BBRI Pa-No. 67, Table 7): 3.1 µg/mL
- MIC (Pseudomonas aeruginosa; BBRI Pa-No. 68, Table 2): 6.3 µg/mL
- MIC (Pseudomonas aeruginosa; BBRI Pa-No. 68, Table 7): 3.1 µg/mL
- MIC (Pseudomonas aeruginosa; BBRI Pa-No. 69, Table 2): 12.5 µg/mL
- MIC (Pseudomonas aeruginosa; BBRI Pa-No. 69, Table 7): 6.3 µg/mL
- MIC (Pseudomonas aeruginosa; BBRI Pa-No. 70, K-Ps102 (CR-102), Table 2): 3.1 µg/mL
- MIC (Pseudomonas aeruginosa; BBRI Pa-No. 70, K-Ps102(CR-102), Table 7): 1.6 µg/mL
- MIC (Pseudomonas aeruginosa; GN315, BBRI Pa-No. 27, GN315, Table 2): 3.1 µg/mL
- MIC (Pseudomonas aeruginosa; GN315, BBRI Pa-No. 27, GN315, Table 7): 1.6 µg/mL
- MIC (Pseudomonas aeruginosa; GN4925, BBRI Pa-No. 44, GN4925, Table 7): 6.3 µg/mL
- MIC (Pseudomonas aeruginosa; GN4925, BBRI Pa-No. 45, GN4925, Table 2): 6.3 µg/mL
- MIC (E. coli; E. coli Juhl): 1.6 µg/mL
- MIC (E. coli; E. coli NIHJ): 0.05 µg/mL
- MIC (E. coli; E. coli, unnamed strain (4th E. coli line)): 0.8 µg/mL
- MIC (E. coli; E. coli, unnamed strain (5th E. coli line)): 100 µg/mL
- MIC (E. coli; E. coli, unnamed strain (6th E. coli line)): 3.1 µg/mL
- MIC (E. coli; E. coli, unnamed strain (7th E. coli line)): 100 µg/mL
- MIC (E. coli; E. coli, unnamed strain (8th E. coli line)): 3.1 µg/mL
- MIC (E. coli; E. coli, unnamed strain (9th E. coli line)): 0.4 µg/mL
- MIC (P. aeruginosa; P. aeruginosa (1st line)): 1.6 µg/mL
- MIC (P. aeruginosa; P. aeruginosa (2nd line)): 3.1 µg/mL
- MIC (P. aeruginosa; P. aeruginosa (3rd line)): 3.1 µg/mL
- MIC (P. aeruginosa; P. aeruginosa (4th line)): 12.5 µg/mL
- MIC (P. aeruginosa; P. aeruginosa (5th line)): 1.6 µg/mL
- MIC (P. aeruginosa; P. aeruginosa (6th line)): 1.6 µg/mL
- MIC (Klebsiella sp.): 3.1 µg/mL
- MIC (S. aureus; S. aureus BX-1633, Table 1): 0.8 µg/mL
- MIC (S. aureus; S. aureus Smith (1st line), Table 1): 0.8 µg/mL
- MIC (S. aureus; S. aureus Smith (2nd line), Table 1): 1.6 µg/mL
- MIC (S. aureus; S. aureus, unnamed strain (4th S. aureus line), Table 1): 25 µg/mL
- MIC (S. aureus; S. aureus, unnamed strain (5th S. aureus line), Table 1): 1.6 µg/mL
- MIC (S. aureus; S. aureus, unnamed strain (6th S. aureus line), Table 1): 50 µg/mL
- MIC (K. pneumoniae): 1.6 µg/mL
- ED50 (Ps. aeruginosa A9843; mice, P. aerug. A9843 infection, Table 5, read-out: PD50): 37 mg/kg
- ED50 (Ps. aeruginosa A9843; subcutaneous injection in mice, Ps. aeruginosa, Table 4, read-out: Median Curative Dose (PD50)): 37 mg/kg
- ED50 (S. aureus Smith): 0.8 mg/kg
- Mean % Relative Activity (SPBC = 100%) (Pseudomonas (6 strains); lot 1, Table 5): 635%
- Mean % Relative Activity (SPBC = 100%) (Pseudomonas (6 strains); lot 2, Table 5): 712%
- Mean % Relative Activity (Sulbenicillin = 100%) (Pseudomonas (6 strains); Pseudomonas (6 strains), from geometric means of MICs in Table 1): 635%
